These results are taken from patent US5891917A, “Certain acrylonitrile-sulfonamide derivatives” (Sugen, Inc., priority 1997, dated 1999).

Holding throughout (assay type): cell-based
One assay concerns the target T1, IGF-1R (Homo sapiens, UniProt P08069).
T1 construct: expressed in transfected cells; host or cells: 3T3/IGF-1R (mouse NIH 3T3 line overexpressing IGF-1R)
Put plainly: Cellular IGF-1 Receptor ELISA. As to conditions: 3T3/IGF-1R cells, 20 nM IGF-1. The protocol:
Cellular IGF-1 Receptor ELISA (Version I)
(1). The cell line used in this assay is 3T3/IGF-1R, a cell line which overexpresses IGF-1 Receptor.
(2). 3T3/IGF-1R is grown in an incubator with 5% CO2 at 37° C. The growth media is DMEM+10% FBS (heat inactivated)+2mM L-Glutamine.
(3). For ELISA plate coating, the anti-IGF-1R antibody named 17-69 is used. Antibodies are purified by the Enzymology Lab, SUGEN, Inc.
(10). Insulin-like growth factor-1 from Promega (Cat# G5111).
(11). Polyclonal antiserum Anti-phosphotyrosine:
(1). The cells, grown in tissue culture dish (10 cm, Corning 25020-100) to 80-90% confluence, are harvested with Trypsin-EDTA (0.25%, 0.5 ml/D-100, GIBCO).
(2). Resuspend the cells in fresh DMEM +10% FBS+2 mM L-Glutamine, and transfer to 96-well tissue culture plate (Corning, 25806-96) at 20,000 cells/well (100 ul/well). Incubate for 1 day then replace medium to serum-free medium (90/ul) and incubate in 5% CO2 and 37° C. overnight.
(1). Coat the ELISA plate (Corning 25805-96) with Anti-IGF-1R Antibody at 0.5 ug/well in 100 ul PBS at least 2 hours. (2). Remove the coating solution, and replace with 100 ul Blocking Buffer, and shake for 30 minutes. Remove the blocking buffer and wash the plate just before adding lysate.
(1). The drugs are tested in serum-free condition.
(2). Dilute drug stock (in 100% DMSO) 1:10 with DMEM in 96-well poly-propylene plate, and transfer 10 ul/well of this solution to the cells to achieve final drug dilution 1:100, and final DMSO concentration of 1.0%. Incubate the cells in 5% CO2 at 37° C. for 2 hours.
(3). Prepare fresh cell lysis buffer (HNTG HNTG 2 ml EDTA 0.1 ml Na3VO4 0.1 ml Na4P2O7 0.1 ml H20 7.3 ml HNTG* 10 ml.
(4). After drug incubation for two hours, transfer 10 ul/well of 200nM IGF-1 Ligand in PBS to the cells (Final Conc=20 nM), and incubate at 5% CO2 at 37° C. for 10 minutes.
(5). Remove media and add 100 ul/well HNTG* and shake for 10 minutes. Look at cells under microscope to see if they are adequately lysed.
(6). Use a 12-channel pipette to scrape the cells from the plate, and homogenize the lysate by repeat aspiration and dispense. Transfer all the lysate to the antibody coated ELISA plate [V.2.(2)], and shake for 1 hour.
(7). Remove the lysate, wash the plate, transfer anti-pTyr (1:3,000 with TBST) 100 ul/well, and shake for 30 minutes.
(7). Remove anti-pTyr, wash the plate, transfer detection antibody (1:3,000 with TBST) 100 ul/well, and shake for 30 minutes.
(8). Remove detection antibody, wash the plate, and transfer fresh ABTS/H2O2 (1.2 ul H2O2 to 10 ml ABTS) 100 ul/well to the plate to start color development.
(9). Measure OD (410 nm) in Dynatec MR5000, which is connected to Ingres.
Background: An ELISA detects its analyte on a solid surface through an enzyme-linked reagent.

The test system of the next assay is MCF7/HER2 cells. Nature of the assay: MCF-7/HER-2 SRB Growth Assay. As to conditions: Homo sapiens, read-out: Growth Data: MC7/HER2 (0.5% FBS). From the text: (§1) The following examples illustrate the ability of the exemplary compounds to inhibit receptor tyrosine kinases, such as HER2 and/or EGFR. The following target cells were used for cellular kinase assays: NIH3T3 clone C7 (Honegger et al., supra) engineered to over-express human EGF receptor; NIH3T3 cells engineered to over-express a chimeric receptor containing the EGFR extracellular domain and the HER2 intracellular kinase domain; the human mammary carcinoma line BT474 (ATCC HTB2) expressing HER2; and the human glioblastoma line U1242 that expresses PDGFR-beta. Growth assays were carried out using human mammary epithelial SKBR3 (ATCC HTB30) cells (SKBR3 cells over-express HER2), SKOV3 (ATCC HTB77) human ovarian cancer cell line (SKOV3 cells also over-express HER2), A431 cells (A431 cells over-express EGFR) MCF7 human breast carcinoma cells, MCF7 cells overexpressing the HER2 kinase (MCF7-HER2), NIH3T3 cells, and NIH3T3 cells overexpressing the HER2 kinase (3T3-HER2.
MCF-7/HER-2 SRB Growth Assay
The protocol is basically the same as that above (for the MCF-7 Growth Assay) except that immediately before the 30 compound is added, the normal growth media is removed and 0.5% FBS/RPMI supplemented with 2 mM Glutamine is added onto the cells. The compound is also prepared in this 0.5% serum media. The plate of cells is incubated for four days and developed as usual.

The test system of a further assay is MCF7 cells. Nature of the assay: MCF-7 SRB Growth Assay. As to conditions: Homo sapiens, read-out: Growth Data: MCF7 10% FBS.
Source text: as §1
MCF-7 cells are seeded at 2000 cells/well in a 96-well flat bottom plate in normal growth media, which was 10% FBS/RPMI supplemented with 2 mM Glutamine. The plate of cells is incubated for about 24 hours at […] after which it receives an equal volume of compound dilution per well making the total volume per well 200 μl. The compound is prepared at 2 times the desired highest final concentration and serially diluted in the normal growth media in a 96-well round bottom plate and then transferred to plate of cells. DMSO serves as the vector control up to 0.2% as final concentration. The cells are then incubated at 37° C. in a humidified 5% CO2 incubator.
Four days following dosing of compound, the media is 15 discarded and 200 μ/well of ice-cold 10% TCA (Trichloroacetic Acid) is added to fix cells. After 60 minutes at 4° C., the TCA is discarded and the plate is rinsed 5 times with water. The plate is then air-dried and 100 μl/well of 0.4% SRB (Sulforhodamine B from Sigma) 20 in 1% Acetic Acid is added to stain cells for 10 minutes at room temperature. The SRB is discarded and the plate is rinsed 5 times with 1% Acetic Acid. After the plate is completely dried, 100 μl/well of 10 mM Tris-base is added to solubilize the dye. After 5 to 10 minutes, the plate is read on a Dynatech ELISA Plate Reader at dual wavelengths at 570 nm and 630 nm.

T1 sequence (P08069 741-1367 limits assumed): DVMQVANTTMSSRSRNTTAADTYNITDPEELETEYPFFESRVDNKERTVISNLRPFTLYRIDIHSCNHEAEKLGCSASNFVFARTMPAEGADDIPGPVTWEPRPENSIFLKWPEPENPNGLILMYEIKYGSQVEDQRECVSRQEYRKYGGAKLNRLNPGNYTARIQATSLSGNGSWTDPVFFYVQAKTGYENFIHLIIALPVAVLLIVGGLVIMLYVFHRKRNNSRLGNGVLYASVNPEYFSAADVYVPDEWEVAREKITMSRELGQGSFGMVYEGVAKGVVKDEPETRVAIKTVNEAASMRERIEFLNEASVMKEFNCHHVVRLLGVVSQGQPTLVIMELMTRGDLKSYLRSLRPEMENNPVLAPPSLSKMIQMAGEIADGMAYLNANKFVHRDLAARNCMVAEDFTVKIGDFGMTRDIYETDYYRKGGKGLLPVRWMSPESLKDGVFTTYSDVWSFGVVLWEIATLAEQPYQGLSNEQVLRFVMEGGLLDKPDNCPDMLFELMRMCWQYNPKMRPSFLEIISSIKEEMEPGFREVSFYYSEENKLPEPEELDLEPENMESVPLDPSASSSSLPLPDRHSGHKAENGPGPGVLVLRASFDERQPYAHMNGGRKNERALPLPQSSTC
T1 sequence (P08069 31-736 partner limits assumed): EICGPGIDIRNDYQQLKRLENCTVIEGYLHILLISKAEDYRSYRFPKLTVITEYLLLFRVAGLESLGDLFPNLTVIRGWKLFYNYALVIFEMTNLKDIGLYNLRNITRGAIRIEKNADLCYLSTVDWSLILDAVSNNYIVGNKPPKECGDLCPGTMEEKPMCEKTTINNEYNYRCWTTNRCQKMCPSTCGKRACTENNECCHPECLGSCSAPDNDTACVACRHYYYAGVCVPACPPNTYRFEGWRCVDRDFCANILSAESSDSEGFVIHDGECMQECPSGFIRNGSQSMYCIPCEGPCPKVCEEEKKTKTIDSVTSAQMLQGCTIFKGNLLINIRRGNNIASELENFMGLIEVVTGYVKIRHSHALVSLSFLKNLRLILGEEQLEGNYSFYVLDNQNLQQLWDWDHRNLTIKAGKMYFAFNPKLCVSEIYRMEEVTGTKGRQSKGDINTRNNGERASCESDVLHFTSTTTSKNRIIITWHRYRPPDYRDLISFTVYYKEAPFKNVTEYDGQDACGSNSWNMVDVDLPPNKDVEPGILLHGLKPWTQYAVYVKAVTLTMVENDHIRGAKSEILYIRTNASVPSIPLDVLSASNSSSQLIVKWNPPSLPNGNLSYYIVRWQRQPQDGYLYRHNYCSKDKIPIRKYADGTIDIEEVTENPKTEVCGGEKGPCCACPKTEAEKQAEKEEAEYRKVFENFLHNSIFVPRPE

On to `CC(C)(C)c1cc(/C=C(\C#N)S(=O)(=O)c2cccs2)cc(C(C)(C)C)c1O` [Compound 742], for which the IC50 against IGF-1R was above 100 µM; with MCF7/HER2 cells, 0.2 µM; in the assay on MCF7 cells it was 2 µM.
The matching figures for `CC(C)(C)c1cc(/C=C(\C#N)S(=O)(=O)c2ccc(F)cc2)cc(C(C)(C)C)c1O` [Compound 740]: above 100 µM, 0.007 µM and 0.2 µM.
The like results for `N#C/C(=C\c1ccc(O)cc1Cl)S(=O)(=O)NCc1ccccc1` [Compound 733] were, in that order, above 100 µM, 16 µM and 65 µM.
The like results for `Cc1cc(/C=C(\C#N)S(=O)(=O)c2ccc(F)cc2)cc(C)c1O` [Compound 744] were, in that order, above 100 µM, 46 µM and above 100 µM.
Consider `CC(C)c1cc(/C=C(\C#N)S(=O)(=O)c2ccccn2)cc(C(C)C)c1O` [Compound 747], for which the results for the IC50 at IGF-1R, with MCF7/HER2 cells and with MCF7 cells were above 100 µM, 26 µM and 55 µM, respectively.
The like results for `CC(C)c1cc(/C=C(\C#N)S(=O)(=O)c2cccs2)cc(C(C)C)c1O` [Compound 737] were, in that order, 93.5 µM, 3 µM and 16 µM.
The like results for `CC(C)c1cc(/C=C(\C#N)S(=O)(=O)Cc2cccc(C(F)(F)F)c2)cc(C(C)C)c1O` [Compound 736] were, in that order, 19 µM, 1 µM and 8 µM.
In the case of `CC(C)c1cc(/C=C(\C#N)S(=O)(=O)NCc2ccccc2)cc(C(C)C)c1O` [Compound 732], the IC50 on IGF-1R amounted to 11.8 µM; in the assay with MCF7/HER2 cells, 2.5 µM; in the assay with MCF7 cells, 13 µM.
In the case of `CC(C)c1cc(/C=C(\C#N)S(=O)(=O)c2ccc(F)cc2)cc(C(C)C)c1O` [Compound 741, (E)-3-(3,5-Diisopropyl-4-hydroxyphenyl)-2-(4-fluorophenylsulfonyl)acrylonitrile], the IC50 on IGF-1R turned out to be 28.3 µM; with MCF7/HER2 cells, 1 µM; in the assay on MCF7 cells it was 8 µM.
`CC(C)c1cc(/C=C(\C#N)S(=O)(=O)/C(C#N)=C/c2cc(C(C)C)c(O)c(C(C)C)c2)cc(C(C)C)c1O` [Compound 745] came in with an IC50 on IGF-1R of 69 µM.
Take `CC(C)c1cc(/C=C(\C#N)S(=O)(=O)c2ccsc2)cc(C(C)C)c1O` [Compound 738]: the IC50 against IGF-1R was above 100 µM; in the assay with MCF7/HER2 cells, 3 µM; in the assay with MCF7 cells it was 17 µM.
Take `CC(C)c1cc(/C=C(\C#N)S(=O)(=O)c2ccccc2)cc(C(C)C)c1O` [Compound 731]: the results for the IC50 against IGF-1R, with MCF7/HER2 cells and in the assay with MCF7 cells were 29.2 µM, 1 µM and 12 µM, respectively.
The matching figures for `Cc1cc(/C=C(\C#N)S(=O)(=O)Cc2cccc(C(F)(F)F)c2)cc(C)c1O` [Compound 739]: above 100 µM, 14 µM and 35 µM.
The matching figures for `N#C/C(=C\c1ccc(O)cc1Cl)S(=O)(=O)NCCCc1ccccc1` [Compound 734]: 93.9 µM, 7 µM and 56 µM.
The matching figures for `Cc1cc(/C=C(\C#N)S(=O)(=O)c2ccccc2)cc(C)c1O` [Compound 748]: above 100 µM, 46 µM and above 100 µM.
Consider `CC(C)(C)c1cc(/C=C(\C#N)S(=O)(=O)c2ccsc2)cc(C(C)(C)C)c1O` [Compound 746], for which the IC50 on IGF-1R is above 100 µM; with MCF7/HER2 cells, 0.3 µM; in the assay on MCF7 cells, 2 µM.
The matching figures for `CC(C)(C)c1cc(/C=C(\C#N)S(=O)(=O)Cc2cccc(C(F)(F)F)c2)cc(C(C)(C)C)c1O` [Compound 735]: above 100 µM, 0.5 µM and 0.7 µM.
On to `N#C/C(=C\c1ccc(O)c(O)c1)S(=O)(=O)c1cccs1` [Compound 743, (E)-3-(3,4-Dihydroxyphenyl)-2-[(thien-2-yl)sulfonyl]acrylonitrile], for which the IC50 on IGF-1R was above 100 µM.
